Starred links: 1 amine or outer side, 2 acyl side, 3 side chain; linkers in the order of their positions; H or OH if unused. Positions of bridges follow the written chain, without caps; N, C: chain ends. Non-standard residues stand in square brackets, D forms with d. Residues, ends and D or L forms follow the SMILES beside them. Bip(4'-COOH) = N[C@@H](Cc1ccc(-c2ccc(C(=O)O)cc2)cc1)C(=O)O; Bip(4'-NHAc) = CC(=O)Nc1ccc(-c2ccc(C[C@H](N)C(=O)O)cc2)cc1; Phe(3-CH2NH2) = O=C([C@H](Cc1cccc(CN[*:3])c1)N[*:1])[*:2]; Ala(morpholin-4-yl) = N[C@@H](CN1CCOCC1)C(=O)O; Bip = N[C@@H](Cc1ccc(-c2ccccc2)cc1)C(=O)O; Morpholine(3S-CO) = O=C(O)[C@@H]1COCCN1; Pro(4S-NH2) = N[C@@H]1CN[C@H](C(=O)O)C1; Val(3-OH) = CC(C)(O)[C@H](N)C(=O)O; cisHyp = O=C(O)[C@@H]1C[C@H](O)CN1; h4Pal = N[C@@H](CCc1ccncc1)C(=O)O; 2Pal = N[C@@H](Cc1ccccn1)C(=O)O; 3Pal = N[C@@H](Cc1cccnc1)C(=O)O; Cha = N[C@@H](CC1CCCCC1)C(=O)O; Pip = O=C(O)[C@@H]1CCCCN1; Aze = O=C(O)[C@@H]1CCN1; Sar = CNCC(=O)O
Molecular target: TNFα (Homo sapiens, UniProt P01375)
Assay: TNF-Induced HEK-Blue Assay
Assay type: cell-based
Settings: HEK-Blue-CD40L cells, NF-kB-driven secreted alkaline phosphatase reporter; TNFα 0.5 ng/ml; 18 h; read-out: TNF induced HEK-Blue assay IC50 value

TNFα, sequence (P01375 77-233 limits assumed): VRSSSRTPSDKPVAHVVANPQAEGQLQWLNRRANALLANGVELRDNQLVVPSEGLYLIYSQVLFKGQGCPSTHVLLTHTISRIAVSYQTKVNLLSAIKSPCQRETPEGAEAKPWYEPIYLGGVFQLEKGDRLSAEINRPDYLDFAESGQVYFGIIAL

Structure (SMILES)	IC50 [nM]
CC(=O)Nc1ccc(-c2ccc(C[C@@H]3NC(=O)[C@H](Cc4ccc(-c5ccccc5)cc4)NC(=O)[C@H](CN4CCOCC4)NC(=O)CSC[C@@H](C(=O)NCC(N)=O)NC(=O)[C@H](CC(C)C)NC(=O)[C@H](Cc4ccc(O)cc4)NC(=O)[C@H](C(C)C)NC(=O)[C@@H]4CCCN4C(=O)[C@H](Cc4ccc(O)cc4)NC(=O)[C@@H](CCCNC(=N)N)NC(=O)[C@H](CC(=O)O)NC(=O)[C@H](Cc4ccccn4)NC(=O)CN(C)C3=O)cc2)cc1 [Example 177] ({CH2CO}-[Ala(morpholin-4-yl)][Bip][Bip(4'-NHAc)][Sar][2Pal]D[dR]YPVYLCG-NH2; thioether N-13)	50 to 200
CC(=O)Nc1ccc(-c2ccc(C[C@@H]3NC(=O)[C@H](Cc4ccc(-c5ccccc5)cc4)NC(=O)[C@H](CN4CCOCC4)NC(=O)CSC[C@@H](C(=O)N[C@@H](CCCCN)C(=O)O)NC(=O)[C@H](CC(C)C)NC(=O)[C@H](Cc4ccc(O)cc4)NC(=O)[C@H](C(C)C)NC(=O)[C@@H]4CCCN4C(=O)[C@H](C(C)C)NC(=O)[C@@H](CCCNC(=N)N)NC(=O)[C@H](CC(=O)O)NC(=O)[C@H](Cc4ccccn4)NC(=O)CN(C)C3=O)cc2)cc1 [Example 179] ({CH2CO}-[Ala(morpholin-4-yl)][Bip][Bip(4'-NHAc)][Sar][2Pal]D[dR]VPVYLCK-OH; thioether N-13)	50 to 200
CC(=O)Nc1ccc(-c2ccc(C[C@@H]3NC(=O)[C@H](Cc4ccc(-c5ccccc5)cc4)NC(=O)[C@H](CN4CCOCC4)NC(=O)CSC[C@@H](C(=O)NCC(N)=O)NC(=O)[C@H](CC(C)C)NC(=O)[C@H](Cc4ccc(O)cc4)NC(=O)[C@H](C(C)C)NC(=O)[C@@H]4COCCN4C(=O)[C@H](C(C)C)NC(=O)[C@@H](CCCNC(=N)N)NC(=O)[C@H](CC(=O)O)NC(=O)[C@H](Cc4ccccn4)NC(=O)CN(C)C3=O)cc2)cc1 [Example 180] ({CH2CO}-[Ala(morpholin-4-yl)][Bip][Bip(4'-NHAc)][Sar][2Pal]D[dR]V[Morpholine(3S-CO)]VYLCG-NH2; thioether N-13)	50 to 200
CC(=O)Nc1ccc(-c2ccc(C[C@@H]3NC(=O)[C@H](Cc4ccc(-c5ccccc5)cc4)NC(=O)[C@H](CN4CCOCC4)NC(=O)CSC[C@@H](C(=O)NCC(N)=O)NC(=O)[C@H](CC(C)C)NC(=O)[C@H](Cc4ccc(O)cc4)NC(=O)[C@H](C(C)C)NC(=O)[C@@H]4CCCN4C(=O)[C@H](C(C)C)NC(=O)[C@@H](CCCNC(=N)N)NC(=O)[C@H](CC(=O)O)NC(=O)[C@@H]4CCCCN4C(=O)CN(C)C3=O)cc2)cc1 [Example 182] ({CH2CO}-[Ala(morpholin-4-yl)][Bip][Bip(4'-NHAc)][Sar][Pip]D[dR]VPVYLCG-NH2; thioether N-13)	50 to 200
CC(=O)Nc1ccc(-c2ccc(C[C@@H]3NC(=O)[C@H](Cc4ccc(-c5ccccc5)cc4)NC(=O)[C@H](CN4CCOCC4)NC(=O)CSC[C@@H](C(=O)NCC(N)=O)NC(=O)[C@H](CC(C)C)NC(=O)[C@H](Cc4ccc(O)cc4)NC(=O)[C@H](C(C)C)NC(=O)[C@@H]4CCCN4C(=O)[C@H](C(C)C)NC(=O)[C@@H](CCCNC(=N)N)NC(=O)[C@H](CC(=O)O)NC(=O)[C@@H]4C[C@H](O)CN4C(=O)CN(C)C3=O)cc2)cc1 [Example 183] ({CH2CO}-[Ala(morpholin-4-yl)][Bip][Bip(4'-NHAc)][Sar][cisHyp]D[dR]VPVYLCG-NH2; thioether N-13)	50 to 200
CC(=O)Nc1ccc(-c2ccc(C[C@@H]3NC(=O)[C@H](Cc4ccc(-c5ccc(C(=O)O)cc5)cc4)NC(=O)[C@H](CN4CCOCC4)NC(=O)CSC[C@@H](C(=O)NCC(N)=O)NC(=O)[C@H](CC(C)C)NC(=O)[C@H](CCCNC(=N)N)NC(=O)[C@H](C(C)C)NC(=O)[C@@H]4CCN4C(=O)[C@H](C(C)C)NC(=O)[C@@H](CCCNC(=N)N)NC(=O)[C@H](CC(=O)O)NC(=O)[C@H](Cc4ccccn4)NC(=O)CN(C)C3=O)cc2)cc1 [Example 185] ({CH2CO}-[Ala(morpholin-4-yl)][Bip(4'-COOH)][Bip(4'-NHAc)][Sar][2Pal]D[dR]V[Aze]VRLCG-NH2; thioether N-13)	< 50
CC(C)C[C@@H]1NC(=O)[C@H](Cc2ccc(O)cc2)NC(=O)[C@H](C(C)C)NC(=O)[C@@H]2CCCN2C(=O)[C@H](C(C)C)NC(=O)[C@@H](CCCNC(=N)N)NC(=O)[C@H](CC(=O)O)NC(=O)[C@H](Cc2ccc(O)cc2)NC(=O)CN(C)C(=O)[C@H](Cc2ccc(-c3ccccc3)cc2)NC(=O)[C@H](Cc2ccc(-c3ccc(C(=O)O)cc3)cc2)NC(=O)[C@H](CCc2ccncc2)NC(=O)CSC[C@@H](C(=O)NCC(N)=O)NC1=O [Example 186] ({CH2CO}-[h4Pal][Bip(4'-COOH)][Bip][Sar]YD[dR]VPVYLCG-NH2; thioether N-13)	50 to 200
CC(C)C[C@@H]1NC(=O)[C@H](Cc2ccc(O)cc2)NC(=O)[C@H](C(C)C)NC(=O)[C@@H]2CCCN2C(=O)[C@H](C(C)C)NC(=O)[C@@H](CCCNC(=N)N)NC(=O)[C@H](CC(=O)O)NC(=O)[C@H](Cc2ccc(O)cc2)NC(=O)CN(C)C(=O)[C@H](Cc2ccc(-c3ccccc3)cc2)NC(=O)[C@H](Cc2ccc(-c3ccc(C(=O)O)cc3)cc2)NC(=O)[C@H](CC2CCCCC2)NC(=O)CSC[C@@H](C(=O)NCC(N)=O)NC1=O [Example 187] ({CH2CO}-[Cha][Bip(4'-COOH)][Bip][Sar]YD[dR]VPVYLCG-NH2; thioether N-13)	50 to 200
CC[C@H](C)[C@@H]1NC(=O)CSC[C@@H](C(=O)NCC(N)=O)NC(=O)[C@H](CC(C)C)NC(=O)[C@H](Cc2ccc(O)cc2)NC(=O)[C@H](C(C)C)NC(=O)[C@@H]2CCCN2C(=O)[C@H](C(C)C)NC(=O)[C@@H](CCCNC(=N)N)NC(=O)[C@H](CC(=O)O)NC(=O)[C@H](Cc2ccc(O)cc2)NC(=O)CN(C)C(=O)[C@H](Cc2ccc(-c3ccccc3)cc2)NC(=O)[C@H](Cc2ccc(-c3ccc(C(=O)O)cc3)cc2)NC1=O [Example 188] ({CH2CO}-I[Bip(4'-COOH)][Bip][Sar]YD[dR]VPVYLCG-NH2; thioether N-13)	< 50
CC(C)C[C@@H]1NC(=O)[C@H](Cc2ccc(O)cc2)NC(=O)[C@H](C(C)C)NC(=O)[C@@H]2CCCN2C(=O)[C@H](C(C)C)NC(=O)[C@@H](CCCNC(=N)N)NC(=O)[C@H](CC(=O)O)NC(=O)[C@H](Cc2ccc(O)cc2)NC(=O)CN(C)C(=O)[C@H](Cc2ccc(-c3ccccc3)cc2)NC(=O)[C@H](Cc2ccc(-c3ccc(C(=O)O)cc3)cc2)NC(=O)[C@H](Cc2c[nH]c3ccccc23)NC(=O)CSC[C@@H](C(=O)NCC(N)=O)NC1=O [Example 189] ({CH2CO}-W[Bip(4'-COOH)][Bip][Sar]YD[dR]VPVYLCG-NH2; thioether N-13)	200 to 2000

Other lines, results leading:

IC50 [nM]	Structure (SMILES)
< 50	CC(=O)Nc1ccc(-c2ccc(C[C@@H]3NC(=O)[C@H](Cc4ccc(-c5ccccc5)cc4)NC(=O)[C@H](C(C)(C)O)NC(=O)CSC[C@@H](C(=O)NCC(N)=O)NC(=O)[C@H](CC(C)C)NC(=O)[C@H](Cc4ccc(O)cc4)NC(=O)[C@H](C(C)C)NC(=O)[C@@H]4CCCN4C(=O)[C@H](C(C)C)NC(=O)[C@@H](CCCNC(=N)N)NC(=O)[C@H](CC(=O)O)NC(=O)[C@H](Cc4ccccn4)NC(=O)CN(C)C3=O)cc2)cc1 [Example 175] ({CH2CO}-[Val(3-OH)][Bip][Bip(4'-NHAc)][Sar][2Pal]D[dR]VPVYLCG-NH2; thioether N-13)
< 50	CC(=O)Nc1ccc(-c2ccc(C[C@@H]3NC(=O)[C@H](Cc4ccc(-c5ccccc5)cc4)NC(=O)[C@H](CN4CCOCC4)NC(=O)CSC[C@@H](C(=O)NCC(N)=O)NC(=O)[C@H](CC(C)C)NC(=O)[C@H](Cc4cccnc4)NC(=O)[C@H](C(C)C)NC(=O)[C@@H]4CCCN4C(=O)[C@H](C(C)C)NC(=O)[C@@H](CCCNC(=N)N)NC(=O)[C@H](CC(=O)O)NC(=O)[C@H](Cc4ccccn4)NC(=O)CN(C)C3=O)cc2)cc1 [Example 176] ({CH2CO}-[Ala(morpholin-4-yl)][Bip][Bip(4'-NHAc)][Sar][2Pal]D[dR]VPV[3Pal]LCG-NH2; thioether N-13)
< 50	CC(=O)Nc1ccc(-c2ccc(C[C@@H]3NC(=O)[C@H](Cc4ccc(-c5ccccc5)cc4)NC(=O)[C@H](C(C)(C)O)NC(=O)CSC[C@@H](C(=O)NCC(N)=O)NC(=O)[C@H](CC(C)C)NC(=O)[C@H](Cc4ccc(O)cc4)NC(=O)[C@H](C(C)C)NC(=O)[C@@H]4CCCN4C(=O)[C@H](Cc4ccc(O)cc4)NC(=O)[C@@H](CCCNC(=N)N)NC(=O)[C@H](CC(=O)O)NC(=O)[C@H](Cc4ccccn4)NC(=O)CN(C)C3=O)cc2)cc1 [Example 178] ({CH2CO}-[Val(3-OH)][Bip][Bip(4'-NHAc)][Sar][2Pal]D[dR]YPVYLCG-NH2; thioether N-13)
< 50	CC(=O)Nc1ccc(-c2ccc(C[C@@H]3NC(=O)[C@H](Cc4ccc(-c5ccc(C(=O)O)cc5)cc4)NC(=O)[C@H](CN4CCOCC4)NC(=O)CSC[C@@H](C(=O)NCC(N)=O)NC(=O)[C@H](CC(C)C)NC(=O)[C@H](Cc4cccc(CN)c4)NC(=O)[C@H](C(C)C)NC(=O)[C@@H]4CCN4C(=O)[C@H](C(C)C)NC(=O)[C@@H](CCCNC(=N)N)NC(=O)[C@H](CC(=O)O)NC(=O)[C@H](Cc4ccccn4)NC(=O)CN(C)C3=O)cc2)cc1 [Example 181] ({CH2CO}-[Ala(morpholin-4-yl)][Bip(4'-COOH)][Bip(4'-NHAc)][Sar][2Pal]D[dR]V[Aze]V[Phe(3-CH2NH2)]LCG-NH2; thioether N-13)
< 50	CC(=O)Nc1ccc(-c2ccc(C[C@@H]3NC(=O)[C@H](Cc4ccc(-c5ccccc5)cc4)NC(=O)[C@H](CN4CCOCC4)NC(=O)CSC[C@@H](C(=O)NCC(N)=O)NC(=O)[C@H](CC(C)C)NC(=O)[C@H](Cc4ccc(O)cc4)NC(=O)[C@H](C(C)C)NC(=O)[C@@H]4CCCN4C(=O)[C@H](C(C)C)NC(=O)[C@@H](CCCNC(=N)N)NC(=O)[C@H](CC(=O)O)NC(=O)[C@@H]4C[C@H](N)CN4C(=O)CN(C)C3=O)cc2)cc1 [Example 184] ({CH2CO}-[Ala(morpholin-4-yl)][Bip][Bip(4'-NHAc)][Sar][Pro(4S-NH2)]D[dR]VPVYLCG-NH2; thioether N-13)

Reference: US20250145665A1, “MACROCYCLIC PEPTIDES USEFUL AS MODULATORS OF TNF ALPHA” (Bristol-Myers Squibb Company, priority 2023, published 2025)
